In patent US20140121732A1, “METHODS AND COMPOSITIONS FOR ADMINISTERING A SPECIFIC WAVELENGTH PHOTOTHERAPY” (Applied Biology, Inc., priority 2011, published 2014):

experiment: UV absorbance spectrum and derived transmittance profile of photocream applied at 20 μm; type: physicochemical
Source text: In one embodiment of the present invention, a band-pass photocream is composed such that it is optimized to have maximum transmittance at a therapeutic wavelength of 311 nm for the treatment of vitiligo, psoriasis, atopic dermatitis, and other skin conditions. Said photocream would contain two UV absorbing active ingredients having UV absorbance spectra that when combined in a determined ratio would have a spectral minimum (valley) at 311 nm. For example, a band-pass photocream could be formulated with silymarin (CAS#22888-70-6) and diethylamino hydroxybenzoyl hexyl benzoate (CAS#302776-68-7) in a weight to weight ratio of 2:3 (or less preferably within the range 1:2 to 5:6, or within the range 5:9 to 7:9) to produce an absorbance spectrum with a spectral valley at 311 nm. Said photocream may contain 0.75% (w/w) silymarin (CAS#22888-70-6) and 1.125% (w/w) diethylamino hydroxybenzoyl hexyl benzoate (CAS#302776-68-7). An illustrative absorbance spectrum for such a composition is shown in FIG. 3 when applied at a thickness of 20 μm. […] Alternatively, a band-pass photocream could be formulated with alpha-glucosyl hesperidin (CAS#161713-86-6) and diethylamino hydroxybenzoyl hexyl benzoate (CAS#302776-68-7) in the weight to weight ratio of 4:1 (or less preferably within the range 3:1 to 5:1, or within the range 7:2 to 9:2) to produce an absorbance spectrum with a spectral valley at 311 nm.
In yet another embodiment, a combination of UV absorbing molecules may be formulated to selectively pass UVB light in the range 306-310 nm for the benefit of maximum vitamin D production while still providing limited protecting from erythema. Said photocream may contain two UV absorbing active ingredients having UV absorption spectra that when combined in a determined ratio would have a spectral minimum (valley) at 308 nm. […] Said photocream could contain 1% (w/w) silymarin (CAS#22888-70-6) and 2.5% (w/w) diethylamino hydroxybenzoyl hexyl benzoate (CAS#302776-68-7) and would produce an absorbance spectra shown in FIG. 7 when applied at a thickness of 20 μm. […]

Row | Structure (SMILES) | UV absorbance (in words)
1 | COc1ccc(C(=O)CC(=O)c2ccc(C(C)(C)C)cc2)cc1 [Avobenzone, avobenzone] | significant absorbance in the UVA
2 | COc1ccc([C@@H]2CC(=O)c3c(O)cc(O[C@@H]4O[C@H](CO[C@@H]5O[C@@H](C)[C@H](O)[C@@H](O)[C@H]5O)[C@@H](O)[C@H](O)[C@H]4O)cc3O2)cc1O [Hesperidin, hesperidin] | significant absorbance in the lower UVB range below roughly 310 nm
3 | COC(=O)C=Cc1ccccc1 [Methyl cinnamate, methyl cinnamate] | significant absorbance in the lower UVB range below roughly 310 nm
